This note sets out measurements from patent US12337010B2, “Compositions and methods of treatment using nicotinamide mononucleotide” (Washington University, priority 2017, dated 2025).

The target in experiment [1] is T1, Slc12a8 (Mus musculus, UniProt Q8VI23).
T1 construct: NIH3T3 cells were transfected with 5 μg of pCXN2 carrying the full-length Slc12a8 cDNA (Slc12a8-OE); expressed in transfected cells
T1 sequence (Q8VI23 1-705): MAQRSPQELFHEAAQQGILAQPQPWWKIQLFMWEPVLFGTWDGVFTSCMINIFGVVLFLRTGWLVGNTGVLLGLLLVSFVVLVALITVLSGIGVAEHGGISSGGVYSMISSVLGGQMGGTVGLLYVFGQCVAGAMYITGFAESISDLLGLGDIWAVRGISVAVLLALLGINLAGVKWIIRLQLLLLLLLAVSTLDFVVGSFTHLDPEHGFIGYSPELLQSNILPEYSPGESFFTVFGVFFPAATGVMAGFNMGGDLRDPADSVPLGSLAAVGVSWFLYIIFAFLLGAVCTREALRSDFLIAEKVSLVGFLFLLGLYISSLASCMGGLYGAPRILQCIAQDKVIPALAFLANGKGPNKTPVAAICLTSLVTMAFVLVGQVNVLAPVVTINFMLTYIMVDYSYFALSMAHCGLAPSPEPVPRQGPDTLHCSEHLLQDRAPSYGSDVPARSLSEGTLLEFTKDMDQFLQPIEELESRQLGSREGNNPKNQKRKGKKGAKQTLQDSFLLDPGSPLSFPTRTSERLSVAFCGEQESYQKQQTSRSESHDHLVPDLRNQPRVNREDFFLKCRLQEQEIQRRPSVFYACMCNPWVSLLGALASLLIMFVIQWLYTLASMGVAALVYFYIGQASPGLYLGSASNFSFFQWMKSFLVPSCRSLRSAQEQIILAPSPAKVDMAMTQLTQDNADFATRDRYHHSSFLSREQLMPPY
Briefly: Radiolabeled NMN uptake in Slc12a8-OE and control NIH3T3 cells. In kind it is cell-based. To be noted: Slc12a8-OE NIH3T3 cells, 4 min, 37° C., control background subtracted. As for the experimental part:
NMN uptake analyses with radiolabeled NMN. Control and Slc12a8-OE NIH3T3 cells were harvested by centrifugation (400×g, 5 min), washed once in HBSS, and incubated at 37° C. in HBSS [pH 7.5] (5×10^6 cells/ml) containing 100 nM 3H-β-Nicotinamide mononucleotide (9 Ci/mmol; Moravek Biochemicals, CA) and unlabeled NMN to make the final concentration 25 μM. At the designated time points (1, 3, 5 and 10 minutes), aliquots of the cells (100 μl) were collected and placed in 1.5-ml microcentrifuge tubes containing silicone-mineral oil (density, 1.015; Sigma-Aldrich) on the top of 2 M potassium hydroxide solution, followed by centrifugation at 16,000×g for 30s. Cells were separated from the buffer and pelleted through the silicone-mineral oil layer. The radioactivity in these cell pellets was determined by a liquid scintillation counter. For calculating Km and Vmax, the same conditions were used as described above, but with various total concentrations of NMN, ranging from 1 μM to 100 μM. At the 4-min time point, 100 μl of cell suspension was collected and pelleted in the same way described above. The radioactivity in cell pellets was determined by a liquid scintillation counter. The radioactivity measured in control NIH3T3 cells was subtracted to calculate Slc12a8-specific NMN uptake in Slc12a8-OE NIH3T3 cells.
Uptake of NMN was measured as described in methods under “NMN uptake analyses with radiolabeled NMN” using 25 μM ^3H-NMN at 37° C. in control and Slc12a8-OE NIH3T3 cells over 10 min in Hanks' buffer [ph7.5] with Mg2+ and Ca2+ (n=12; analyzed by ANOVA with Sidak's test). […] This Km is qualitatively consistent with a detected range of NMN concentrations in mouse plasma and erythrocytes (Revollo, J. R. et al., Cell Metab., 6, 363-375, 2007; Ramsey, K. M., et al., Science, 324, 651-654, 2009; Yamada, K., et al., Anal. Biochem., 352, 282-285, 2006).

Experiment [2] can be described thus: Jejunum NAD+ levels 60 min after oral gavage of NMN. The class given is in vivo, mouse. The conditions noted are these: 60 min after oral gavage (500 mg/kg), Slc12a8-knockdown mice compared to control mice. An excerpt:
In vivo Slc12a8 knockdown experiment. To generate shRNA-expressing lentiviral constructs, 56-bp double-stranded oligonucleotides, each of which contains a sense target sequence, a microRNA-based loop sequence ([…]; SEQ ID NO: 4), an antisense sequence, a termination sequence of four thymidines, and appropriate restriction enzyme sites at both ends, were generated for mouse Slc12a8 and firefly luciferase (fLuc) and cloned into the U6-PGK-GFP vector provided by the Viral Vectors Core at Washington University School of Medicine. The sense Slc12a8 sequence is ‘5-[…]-3’ (SEQ ID NO: 5). Lentiviruses were produced as previously described (Satoh, A. et al., Cell Metab., 18, 416-430, 2013). Knockdown efficiency was tested using primary intestinal cultures (Sato, T. & Clevers, H., Methods Mol. Biol. 945, 319-328, 2013). Large-scale lentivirus production was carried on by the Viral Vectors Core at the Hope Center for Neurological Disorders at Washington University. […]
Lentiviruses carrying control firefly luciferase (fLuc) shRNA and Slc12a8 shRNA were generated as described supra. […] Slc12a8 protein expression levels in control shfLuc lentivirus- and shSlc12a8 lentivirus-infected jejunum and ileum samples were measured through Western blots (FIG. 17). […] Then NAD+ levels were measured by HPLC in these samples (analyzed by ANOVA with Tukey's test).

Turning to `NC(=O)c1ccc[n+]([C@@H]2O[C@H](COP(=O)([O-])O)[C@@H](O)[C@H]2O)c1` [NMN, nicotinamide mononucleotide], in experiment [1], the Km came to 34.1 ± 8.3 µM and the Vmax came out at 11.5 ± 1.2 pmol/min/mg. The “NAD+ levels in the jejunum” value in experiment [2] was “significantly decreased”.
